According to patent US8338414B2, “Immunosuppressive agent and anti-tumor agent comprising heterocyclic compound as active ingredient” (Zenyaku Kogyo KabushikiKaisha, priority 2005, dated 2012):
Where two headings read alike, the source gives them in different places.

Experiments:
mouse spleen cells = test: Proliferation inhibition assay for mouse spleen cells; assay type: cell-based; details: 72 h, 3 days, Alamar Blue
In short: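 C57BL/6N female mouse spleen cells (2×10^6 cells/mL) stimulated with Con A (3 μg/mL), LPS (100 μg/mL) or anti-mouse IgM (100 μg/mL) alongside serially diluted compounds, 3 days at 37° C, 5% CO2. Alamar Blue added for a further day; fluorescence read at ex 530/em 590 nm.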

[1] = tested on: human peripheral blood mononuclear cells; test: Proliferation inhibition assay for human peripheral blood mononuclear cells; assay type: cell-based; details: Homo sapiens, 72 h; PBMC, anti-CD3 and anti-CD28 antibody, 3 days, Alamar Blue
In short: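 PBMC from healthy donors (1×10^5 cells/mL) in RPMI 1640 with 10% FBS were stimulated with plate-bound anti-CD3 plus anti-CD28 (1 μg/mL). Serially diluted compounds were added and cells were cultured 3 days at 37 °C. Alamar Blue was then added for 1 day and fluorescence was read at ex 530/em 590 nm.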

[2] = tested on: human peripheral blood mononuclear cells; test: Activation inhibition assay for human peripheral blood mononuclear cells (CD40L, CD69 expression); assay type: cell-based; details: PBMC, anti-CD3 + anti-CD28, 6 hours, flow cytometry
Method: In accordance with the method of Assay Example 2, PBMC (2×10^6 cells/mL) was isolated from human peripheral blood, suspended in RPMI 1640 medium (containing 10% fetal bovine serum, 10 mM HEPES, 1 mM pyruvic acid, and 4.5 g/L glucose), and seeded in wells of a 96 well plate at 0.225 mL per well. The test substances were added to respective wells, and then an anti-CD3 antibody (2 μg/mL) and an anti-CD28 antibody (1 μg/mL) were added. Then, after incubation under conditions of carbon dioxide 5% at a temperature 37° C. for 6 hours, the expressions of CD40L and CD69, activation markers, were analysed by flow cytometry. As a result, when the cells were stimulated by both an anti-CD3 antibody and an anti-CD28 antibody, CD40L was expressed on 14.4% of PBMC, which was also CD4 positive. However, the proportion of the cells which expressed CD40L decreased when the cells had been treated with test substances (Compound 4: 4.9%; Compound 20: 3.7%, Compound 24: 3.6%).

[3] = tested on: Rabbit synoviocytes HIG-82; test: Inhibition assay for proliferation of rabbit synoviocyte; assay type: cell-based; details: Oryctolagus cuniculus, 72 h; HIG-82, 3 days, Alamar Blue
[4] = tested on: allogeneic mixed lymphocyte reaction; test: Allogeneic mixed lymphocyte reaction; assay type: cell-based, mouse; details: Mus musculus, Lymphocyte; C57BL/6N spleen stimulator cells, BALB/c lymph node responder cells, 86 hours, BrdU
In short: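 Stimulators were C57BL/6N female spleen cells and responders BALB/c female peripheral lymph node mononuclear cells (mice 8-10 weeks old). Cells suspended at 2×10^6 cells/mL in RPMI 1640 with 10% FBS and antibiotics.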

Daudi cells = test: Proliferation inhibitory activity on hematologic neoplasm cells, Daudi; assay type: cell-based; details: Homo sapiens, Daudi, 72 h; 3 days, Alamar Blue
Jurkat cells = test: Proliferation inhibitory activity on hematologic neoplasm cells, Jurkat; assay type: cell-based; details: Homo sapiens, Jurkat, 72 h; 3 days, Alamar Blue
HL 60 cells = test: Proliferation inhibitory activity on hematologic neoplasm cells, HL60; assay type: cell-based; details: Homo sapiens, HL-60, 72 h; 3 days, Alamar Blue
THP-1 cells = test: Proliferation inhibitory activity on hematologic neoplasm cells, THP-1; assay type: cell-based; details: Homo sapiens, THP-1, 72 h; 3 days, Alamar Blue
U 937 cells = test: Proliferation inhibitory activity on hematologic neoplasm cells, U937; assay type: cell-based; details: Homo sapiens, U-937, 72 h; 3 days, Alamar Blue
fulminant hepatitis = test: Fulminant hepatitis model (galactosamine and LPS); assay type: in vivo, mouse; details: BALB/c mice, galactosamine 800 mg/kg and LPS 110 μg/kg i.p.
Method: BALB/c male mice (7 weeks old, purchased from Charles River Laboratories Japan Inc.) were used in the experiment. After having orally administered the test substances suspended in 5% HPC, galactosamine (800 mg/kg) and LPS (110 μg/kg) were intraperitoneally administered. Then, survival rates at 72 hours after administration were obtained.

[5] = Toxicologic test for single oral administration; details: Sprague-Dawley (SD), rat, in vivo; SD male rats, single oral dose
[6] = tested on: Salmonella typhimurium TA98, TA100, TA1535, TA1537 and Escherichia coli WP2uvrA; test: Ames test; assay type: cell-based; details: preincubation method, with or without S-9, up to 5000 μg/flat plate
Method: Using 5 strains of Salmonella typhimurium TA98, TA100, TA1535, TA1537 and Escherichia coli WP2uvrA, the test substances (Compound 4, Compound 19, Compound 22 and Compound 24) were tested for their mutagenesis according to a preincubation method.

COc1cccc2c1nc(C(F)F)n2-c1nc(N2CCOCC2)cc(N2C[C@@H](C)O[C@@H](C)C2)n1 [Compound 24, 2-(2-Difluoromethyl-4-methoxybenzimidazol-1-yl)-4-(cis-2,6-dimethylmorpholino)-6-morpholinopyrimidine]
IC50 (mouse spleen cells; LPS 100 μg/mL, read-out: Inhibition of LPS response): 0.1 to 10 µM | IC50 (mouse spleen cells; anti-mouse IgM antibody 100 μg/mL, read-out: Inhibition of Anti-IgM antibody response): 0.1 to 10 µM | IC50 (mouse spleen cells; concanavalin A 3 μg/mL, read-out: Inhibition of Con A response): 0.1 to 10 µM | IC50 [1]: 471 nM | proportion of the cells which expressed CD40L ([2]; CD4 positive, 14.4% without test substance): 3.6% | proportion of CD4-positive cells which expressed CD69 ([2]; 28.8% without test substance): 17.7% | proportion of CD4-negative cells which expressed CD69 ([2]; 50.9% without test substance): 22.4% | IC50 [3]: 441 nM | IC50 [4]: 286 nM | IC50 (Daudi cells): 397 nM | IC50 (Jurkat cells): 1450 nM | IC50 (HL 60 cells): 823 nM | IC50 (THP-1 cells): 859 nM | IC50 (U 937 cells): 2790 nM | Survival Rate after 72 Hours (fulminant hepatitis; 50 mg/kg oral): 33% | Survival Rate after 72 Hours (fulminant hepatitis; 100 mg/kg oral): 67% | LD50 [5]: 600 to 900 mg/kg | mutagenesis (colony number of reverse mutation) [6]: negative
